From patent publication US20100099741A1, “Molecular Targets for Treatment of Learning and Memory Dysfunction” (priority 2008, published 2010)

Key:
CREB [1] = test: Western blot of CREB activity (Ser133 phosphorylation) in primary neurons after neurotransmitter ligands, forskolin or H-89; assay type: cell-based, rat
Text: With the primary neuronal cultures, we tested the ability of the constructed Boolean network to correctly predict the output activity, following an increase in the concentration of each input molecules. According to the logic equations of the CREB network (1), which provide the on/off state of CREB in response to the on/off states of input neurotransmitters (1), serotonin is the only input activates CREB. To verify this prediction experimentally, we treated primary neurons with equal micromolar concentrations (10 μM) of serotonin, glutamate, dopamine, GABA, and adenosine for 15 minutes and measured the activity of CREB by monitoring Ser133 phosphorylation (14). Receptors of these neurotransmitters are expressed in the primary cortical culture and this concentration is used in the literature to activate these receptors (17-22).
We also tried to verify the biological relevance of the stuck-at-1 and stuck-at-0 fault models used in Abdi et al (1). We tested the effect of serotonin on the activity of CREB when PKA, a highly vulnerable molecule in this network, is either activated (stuck-at-1) or inhibited (stuck-at-0), by forskolin or H-89, respectively. When PKA is stuck-at-1 or 0, the model predicts that serotonin should no longer activate CREB (1). To verify this experimentally, we treated primary neurons with serotonin in the presence or absence of either forskolin or H-89 (FIG. 1E). […] Thus, when the highly vulnerable molecule PKA is stuck-at-1, the network output is not correctly regulated by the input. […] Immunofluorescent analysis of CREB phosphorylation in primary neuron cultures exposed to vehicle, forskolin, or serotonin individually, or to serotonin following treatment with forskolin, was consistent with the results obtained by Western blotting for CREB phosphorylation. The cells were triple labeled with antibodies against Ser133 CREB (as a measure of CREB activity), Map-2 (as a marker that specifically labels neurons), and DRAQ-5 (as a nuclear marker that stains the nucleus of neuronal and normeuronal cells in primary culture). […] Consistent with the Western blot data (FIG. 1E), the effect of serotonin on the activity of CREB in neurons is attenuated, when serotonin was added after treatment with forskolin. […]
Protein extraction, and immunoblot analysis. […] Protein concentration was measured by Bio-Rad's protein assay and spectrometry at 595° A. Equal amounts of total protein were loaded on 4-12% gradient Bis-Tris gels, separated using the NuPAGE system (Invitrogen) and transferred onto nitrocellulose membrane. The membrane was probed with primary and secondary antibodies and signals were detected by chemiluminescence followed by autoradiography. […]

CREB [2] = settings: previous studies (reference 18); cited from earlier work
CREB [3] = test: Immunofluorescent analysis of CREB phosphorylation (Ser133) in primary cortical culture; assay type: cell-based, rat
Text: FIG. 6. Immunofluorescent analysis of primary cortical culture following treatment with vehicle, forskolin, serotonin, or serotonin and forskolin. Red represents the phosphorylated CREB (Ser^133) as a measure of CREB activity. Green represents the Map-2 staining as a specific neuronal marker and blue represent DRAQ-5 nuclear staining of all the cells in the primary culture (both neuronal and glial cells). Images were captured with the same confocal parameters for the four different treatment conditions.
We also tried to verify the biological relevance of the stuck-at-1 and stuck-at-0 fault models used in Abdi et al (1). We tested the effect of serotonin on the activity of CREB when PKA, a highly vulnerable molecule in this network, is either activated (stuck-at-1) or inhibited (stuck-at-0), by forskolin or H-89, respectively. When PKA is stuck-at-1 or 0, the model predicts that serotonin should no longer activate CREB (1). To verify this experimentally, we treated primary neurons with serotonin in the presence or absence of either forskolin or H-89 (FIG. 1E). […] Thus, when the highly vulnerable molecule PKA is stuck-at-1, the network output is not correctly regulated by the input. […]

CREB [4] = test: Western blot of endogenous CREB Ser133 phosphorylation and total CREB protein in primary cortical neurons after P/Q-type calcium channel or Gαi agonist/antagonist treatment; assay type: cell-based, rat
Protocol: We altered the activity or abundance of endogenous L AND/OR P/Q-type calcium channels and Gαi in primary cortical neurons from rats and then assayed for the changes in endogenous CREB activity or abundance (see Methods). We used primary neuronal culture as a model system because it has the most similar CREB signaling network to the in vivo signaling networks of the mammalian brain.
Primary cortical culture. Primary cortical cultures were prepared from brains of embryonic day 17 to 18 Sprague-Dawley rats (Charles River). After trituration of cortical sections with a glass pipette, 2 to 4×10^5 neurons were plated on a coverslip (diameter: 12 mm) precoated with poly d-lysine (BD Biocoat). For biochemical analysis, primary cortical cells were plated in 35 mm dishes precoated with poly d-lysine (˜3×10^6 neurons/dish). Neurons were grown in NEUROBASAL Medium supplemented with 0.5 mM L-glutamine, B27 (2%), and N2 (1%) supplements.
Protein extraction, and immunoblot analysis. Primary neurons were cultured as described. Cells were homogenized in ice cold lysate buffer (0.25 M Tris, pH 7.5) containing protease inhibitors (Protease Inhibitor Cocktail tablets, Boehringer Mannheim) and phosphatase inhibitors (Phosphatase Inhibitor Cocktails I & II, Sigma) and lysed through three cycles of freezing (in liquid nitrogen) and thawing (in 37° C. water bath). Protein concentration was measured by Bio-Rad's protein assay and spectrometry at 595° A. Equal amounts of total protein were loaded on 4-12% gradient Bis-Tris gels, separated using the NuPAGE system (Invitrogen) and transferred onto nitrocellulose membrane. The membrane was probed with primary and secondary antibodies and signals were detected by chemiluminescence followed by autoradiography. The following antibodies were used: anti-CREB antibody (Cell Signaling, 1:1000), anti-phospho Ser^133 CREB antibody (Cell Signaling, 1:1000), anti P/Q type calcium channel antibody (Chemicon, 1:1000), and anti-actin antibody (Sigma, 1:1000).
Analysis of CREB regulation by P/Q-type calcium channels or Gαi. Primary cortical neurons were cultured as described. We followed the methods of Dolmetsch et al. (13) to analyze the effect of calcium channel blockers on CREB activity. We characterized the signaling properties of the endogenous P/Q-type calcium channels by monitoring the endogenous activity and total protein levels of CREB. In order to minimize the effect of other elements of calcium or G protein signaling following neuronal depolarization, all experiments were performed without depolarizing the neurons. Previous time-course studies have shown that short-term Ser^133 phosphorylation of CREB are transient events and prolonged Ser^133 phoaphorylation (more than 40 minutes) is required for transcriptional activity (13, 14, 15). Therefore, in these experiments we analyzed the endogenous Ser^133 phosphorylation and total CREB protein abundance following at least 2 hours treatment with agonist or antagonists of P/Q-type calcium channels and 2 hours treatment with agonist or antagonist of Gαi, ω-Agatoxin IVA (Calbiochem), pertussis toxin (Sigma), and Mas-7 (Calbiochem) were dissolved in the appropriate vehicle and added to the medium. Following the treatment, cortical neurons were harvested, lysed, and subjected to Western blot analysis as described.

[5] = 2 hours treatment, pertussis toxin approximately 0.1 or 0.2 μg/ml, MAS-7 approximately 5 or 10 μM
[6] = long-term (12 h) treatment, approximately 1 μM, vs vehicle
[7] = short-term (2.5 h) treatment, approximately 1 μM, vs vehicle

## O=S(=O)(NCCNC/C=C/c1ccc(Br)cc1)c1cccc2cnccc12 [H-89]
CREB [1]; about 10 μM H-89 30 minutes followed by 15 minutes about 10 μM serotonin
  serotonin-stimulated activity of CREB under inhibition of PKA: prevents serotonin from stimulating the activity of CREB

## NCCc1c[nH]c2ccc(O)cc12 [serotonin]
CREB [2]
  Ser133 CREB phosphorylation: can induce
CREB [3]; primary cortical culture, triple labeled with phospho-CREB, Map-2, DRAQ-5
  activity of CREB (phospho-Ser133 staining) in neuronal and non-neuronal cells: only increased the activity of CREB in the neurons
CREB [3]; serotonin added after treatment with forskolin
  effect of serotonin on the activity of CREB in neurons when added after forskolin: attenuated
CREB [1]; 10 μM for 15 minutes, primary neurons, vs vehicle
  activity of CREB (Ser133 phosphorylation): most robust effect
CREB [1]; about 10 μM forskolin 30 minutes followed by 15 minutes about 10 μM serotonin
  activity of CREB on serotonin treatment following activation of PKA by forskolin, compared to serotonin only: did not affect the activity of CREB
CREB [1]; about 10 μM, forskolin 30 minutes, serotonin 15 minutes, primary neurons
  activity of CREB, individual treatments: activate CREB

## pertussis toxin
CREB [4]; [5]
  Ser133 phosphorylation of CREB: increase
  abundance of CREB: increase

## ω-Agatoxin IVA
CREB [4]; [6]
  abundance of CREB: decreased
  phosphorylation of CREB at Ser133: decreased
CREB [4]; [7]
  phosphorylation of CREB at Ser133: increased
  total abundance of CREB: without changing
